Data: ChEMBL document CHEMBL1201862, “PubChem BioAssay data set” (2004)
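Interpolation was linear, between the two tested concentrations surrounding the appropriate level; five concentrations were tested over 48 hours in 96-well plates. GI50 marks 50% less growth.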 Calls of active or inactive are those of the source. Rule as the data show it: active = GI50 up to about 1.1 µM and inactive = higher.

Tests used:
Experiment in all cases: NCI anticancer screen, dose series, 48 h
M14 = tested on: M14
A549 = tested on: A549
HOP-92 = tested on: HOP-92
MDA-N = tested on: MDA-N
PC-3 = tested on: PC-3
TK-10 = tested on: TK-10
SK-MEL-2 = tested on: SK-MEL-2
RXF 393 = tested on: RXF 393
Malme-3M = tested on: Malme-3M
NCI-H226 = tested on: NCI-H226
A498 = tested on: A498
SK-MEL-28 = tested on: SK-MEL-28
SW-620 = tested on: SW-620
HT-29 = tested on: HT-29
MCF7 = tested on: MCF7
OVCAR-3 = tested on: OVCAR-3
CAKI-1 = tested on: CAKI-1
HL-60 = tested on: HL-60
SF-295 = tested on: SF-295
SR = tested on: SR

SMILES | GI50 (M14) | GI50 (A549) | GI50 (HOP-92) | GI50 (MDA-N) | GI50 (PC-3) | GI50 (TK-10) | GI50 (SK-MEL-2) | GI50 (RXF 393) | GI50 (Malme-3M) | GI50 (NCI-H226) | GI50 (A498) | GI50 (SK-MEL-28) | GI50 (SW-620) | GI50 (HT-29) | GI50 (MCF7) | GI50 (OVCAR-3) | GI50 (CAKI-1) | GI50 (HL-60) | GI50 (SF-295) | GI50 (SR)
CCc1nc2ccc(C(F)(F)F)cc2[nH]c1=O | > 100 µM (inactive) | > 100 µM (inactive) | > 100 µM (inactive) | > 100 µM (inactive) | > 100 µM (inactive) | > 100 µM (inactive) | > 100 µM (inactive) | > 100 µM (inactive) | > 100 µM (inactive) | > 100 µM (inactive) | 94.4 µM (inactive) | > 100 µM (inactive) | > 100 µM (inactive) | > 100 µM (inactive) | > 100 µM (inactive) | > 100 µM (inactive) | 80.7 µM (inactive) | > 100 µM (inactive) | > 100 µM (inactive) | 
CC(C)(C)c1ccc2c(c1)C#Cc1cc3c(cc1OCCCO2)C#Cc1cc(C(C)(C)C)ccc1OCCCO3 | > 100 µM (inactive) | > 100 µM (inactive) | > 100 µM (inactive) | > 100 µM (inactive) | > 100 µM (inactive) | > 100 µM (inactive) | > 100 µM (inactive) | > 100 µM (inactive) | > 100 µM (inactive) |  | > 100 µM (inactive) | > 100 µM (inactive) | > 100 µM (inactive) | > 100 µM (inactive) | > 100 µM (inactive) | > 100 µM (inactive) | > 100 µM (inactive) | > 100 µM (inactive) | > 100 µM (inactive) | 
O=[N+]([O-])/C(C(Cl)=C(Cl)Cl)=C(\Nc1cccc2cccnc12)Sc1ccccc1 | 39.3 µM (inactive) | 29.9 µM (inactive) |  | 43 µM (inactive) | 18.8 µM (inactive) |  | 17.1 µM (inactive) |  | 23.1 µM (inactive) | 28.6 µM (inactive) | 20 µM (inactive) | 20.4 µM (inactive) | 18 µM (inactive) | 23.4 µM (inactive) | 20.8 µM (inactive) | 11.4 µM (inactive) | 22 µM (inactive) |  | 19 µM (inactive) | 
COC(=O)[C@@H]1[C@H]2CC[C@]3(C)[C@@H](OC(C)=O)CC[C@H]3[C@@H]2CC[C@H]1C1(C)SCCS1 | 21.5 µM (inactive) | 25.1 µM (inactive) | 18.7 µM (inactive) | 22 µM (inactive) | 26.8 µM (inactive) | 75 µM (inactive) | 19 µM (inactive) | 20.5 µM (inactive) | 18.9 µM (inactive) | 23.9 µM (inactive) | 57.5 µM (inactive) | 34.7 µM (inactive) | 31.9 µM (inactive) | 15 µM (inactive) | 27 µM (inactive) | 33.1 µM (inactive) | 41.6 µM (inactive) | 18.2 µM (inactive) | 24.8 µM (inactive) | 
CC(C#N)Nc1ccc(Oc2ccc(C(C)(C)c3ccc(Oc4ccc(NC(C)C#N)cc4)cc3)cc2)cc1 (stereo not given) | > 100 µM (inactive) | > 100 µM (inactive) | 31.4 µM (inactive) | > 100 µM (inactive) | 79.4 µM (inactive) | > 100 µM (inactive) | > 100 µM (inactive) | > 100 µM (inactive) | > 100 µM (inactive) | > 100 µM (inactive) | > 100 µM (inactive) | > 100 µM (inactive) | > 100 µM (inactive) | > 100 µM (inactive) | 6.25 µM (inactive) | > 100 µM (inactive) | > 100 µM (inactive) |  | > 100 µM (inactive) | 
Cc1cccc(/C=N/NC(=S)Nc2ccc(Cl)cc2)n1 | 1.08 µM (active) | 1.93 µM (inactive) | 3 µM (inactive) | 0.308 µM (active) | 1.94 µM (inactive) | 11.6 µM (inactive) | 1.35 µM (inactive) |  | 0.665 µM (active) |  |  | 3.39 µM (inactive) | 0.46 µM (active) | 1.03 µM (active) | 0.607 µM (active) | 0.968 µM (active) | 1.7 µM (inactive) |  | 2.02 µM (inactive) | 0.778 µM (active)
CN(C)N1C(=O)c2ccccc2NC1c1ccccc1 (stereo not given) | > 100 µM (inactive) | > 100 µM (inactive) | > 100 µM (inactive) | > 100 µM (inactive) | > 100 µM (inactive) | > 100 µM (inactive) | > 100 µM (inactive) |  | > 100 µM (inactive) | > 100 µM (inactive) | > 100 µM (inactive) | > 100 µM (inactive) | > 100 µM (inactive) | > 100 µM (inactive) | > 100 µM (inactive) | > 100 µM (inactive) | > 100 µM (inactive) |  | > 100 µM (inactive) | 
Nc1nc(N)c2ncn(-c3ccc(Cl)c(Cl)c3)c2n1 | 42.7 µM (inactive) | 30.8 µM (inactive) | 52.7 µM (inactive) | 30.9 µM (inactive) | 24.1 µM (inactive) | 16.7 µM (inactive) | 12.4 µM (inactive) | 12.7 µM (inactive) | 17.9 µM (inactive) | 35.2 µM (inactive) | 13.3 µM (inactive) | 60.5 µM (inactive) | 42.4 µM (inactive) | 22.2 µM (inactive) | 40.1 µM (inactive) | 14.5 µM (inactive) | 16.9 µM (inactive) |  | 28.1 µM (inactive) | 
